Key:
anti-GAA total titers = test: OPLS-GAA sequential administration study; assay type: in vivo, Mice
Method: This examples describes OPLS-GAA sequential administration study. To determine if OPLS can exert its immunomodulatory effects on the immune response to GAA when the two are administered in separate spaced injections, at the same injection site the following experiments were carried out. Mice (n=6 animals/group) were immunized with 4 weekly sc injections as follows. One group of animals received one single combined injection of 5 mg OPLS and 1 μg rhGAA(100 μl volume). Recombinant human GAA was produced by Creative Biomart. The second group received one injection of 5 mg OPLS (100 μl volume) then after a 5 minute wait they received a second injection of 1 μg rhGAA in sterile TRIS (100 μl volume) in the same injection site. The final control group received one injection of sterile TRIS (100 μl volume) then after a 5 minute wait they received a second injection of 1 μg rhGAA in sterile TRIS (100 μl volume) in the same injection site. After a two week rest period a saphenous blood sample was collected. All of the mice were then rechallenged with 4 weekly injections of 1 μg of rhGAA in 100 μl sterile TRIS (one single injection). Analysis was done by ELISA for total titers. The mean free GAA after 6 weeks was 3135±910, When co-administered, the GAA was 787±155, and when administered separately (sequentially), the GAA was 926±202 (FIG. 26). After re-challenge, terminal sampling was done at week 11. The mean free GAA after 11 weeks was 8775±2363, When co-administered, the GAA was 895±335, and when administered separately (sequentially), the GAA was 1884±761. […] Either administration method was able to induce a hypo-responsiveness towards GAA.

anti-GAA antibody titers = test: Effect of OPLS on immunogenicity of GAA protein; assay type: in vivo, mice; conditions: 5 mg dose with 1 μg GAA, 4 weekly s.c., 2 week rest
Method: Materials and Methods: GAA Source: Full length recombinant rhGAA was produced in Human Kidney Embryo Cells for our use by Creative Biomart (Shirley, N.Y.); OPLS Source: Sigma-Aldrich (St. Louis, Mo.). n=8 animals/group were immunized with 4 weekly s.c. injections of 1 μg of GAA in 100 μl of either sterile TRIS for the free group or in 5 mg OPLS in sterile TRIS for the OPLS-GAA group. A group of 8 mice will receive the same dose of CBrhGAA in 5 mg O-phospho-D-serine (OPDS) solution as a negative control. After a 2 week rest period, a blood sample from the saphenous vein will be collected. Samples were stored at −80° C. until analysis. These samples were then analyzed for anti-GAA Ab titers. Anti-GAA antibody titers were measured as follows: ELISA plate (maxisorp, NUNC) was coated with 50 μl of 5 μg/ml of sterile rhGAA in sodium carbonate-bicarbonate buffer pH =9.6. The plate was incubated overnight at 4° C. The plate was washed six times with PBS containing 0.05% Tween 20 (PBS-T, 250 μl/well) using an automated plate washer. The plate was blocked with PBS containing 1% BSA (300 μl/well) as the block buffer for 2 hr at 37° C. […] The reaction was stopped with 2 N sulfuric acid and read immediately at 450 nm using a micro-plate reader. The titer values are quantitated using a statistical endpoint method as described by Frey et al. Control plasma samples were run on each plate. […]

[1] = tested on: anti-FVIII antibody titers; test: FVIII-specific tolerance with OPLS, OPDS or Dex, rechallenge with free FVIII (FIG. 11); conditions: s.c. co-administration with FVIII, then s.c. free FVIII
[2] = Rituximab pharmacokinetics after iv and sc administration in isotonic and hypertonic buffers; assay type: in vivo, SW mice
Method: Preparation and characterization of injection buffers: One isotonic and six different hypertonic TRIS buffers were prepared to investigate the effects of hypertonicity and buffer composition on rituximab lymphatic uptake and plasma exposure (Table 1.).
Isotonic TRIS buffer was prepared using 25 mM TRIS and 150 mM NaCl (Buffer A). Hypertonic (600 mmol/kg) TRIS buffers were prepared with 25 mM of TRIS containing 300 mM NaCl (Buffer B). Buffers “C” and “E” contained NaCl as well as 20 mM of OPLS or Mannitol. To further delineate the effects of buffer composition on lymphatic uptake, we prepared two buffers at 600 mmol/kg with a 270 mM of OPLS (Buffer D) or mannitol (Buffer F). […] Osmolarity was measured using a 5500 Vapor Pressure Osmometer (Wescore Inc. Logen, Utah, USA) according to manufacturer's instruction.
Rituximab pharmacokinetics studies: 126 male SW mice were divided into 7 groups. […] The disposition of RXT will be determined from the iv PK profile and convoluted with the absorption data generated from the sc studies. […] Immediately before analysis; the inguinal lymph nodes were homogenized in 300 μl of PBS on ice and then analyzed.
Analysis of RXT in plasma and lymph node samples: Analysis of plasma and lymph node samples from PK studies was done with a standard ELISA. […] Optical density at 450 nm was measured using a plate reader.

With “free GAA: Full length recombinant rhGAA produced in Human Kidney Embryo Cells by Creative Biomart” the “Total titers (ELISA), week 11 after re-challenge” value (anti-GAA total titers; control group, rechallenge 4 weekly 1 μg rhGAA) was 8775±2363 and the “Total titers (ELISA), week 6” value (anti-GAA total titers; control: TRIS then 1 μg rhGAA 5 min later, same site, 4 weekly sc) was 3135±910.

For `N[C@H](COP(=O)(O)O)C(=O)O` [OPDS, O-Phospho-D-Serine, reference compound], the “Anti-GAA antibody titers vs GAA alone” value (anti-GAA antibody titers) was “lower” and the “FVIII-specific hypo-responsiveness upon rechallenge” value [1] was “did not”.

For “rituximab: Commercial preparation of rituximab (RXT)”, the “sc bioavailability of rituximab” value ([2]; 1 μg/g in isotonic Buffer A) was 0.29 and the “Fraction of the dose taken up by the lymph nodes” value ([2]; 1 μg/g sc in isotonic Buffer A, estimated) was 0.05.

Source: patent publication US20220016241A1, “COMPOSITIONS AND METHODS FOR REDUCING ANTIGEN-SPECIFIC IMMUNOGENICITY” (The Research Foundation for The State University of New York, priority 2013, published 2022)
